Measurements: patent publication US10710951B2, “Pharmaceutical composition containing verbenone derivative for treating or preventing neurodegenerative disease” (KOREA UNIVERSITY RESEARCH AND BUSINESS FOUNDATION, priority 2012, dated 2020)

Key:
[1] = DPPH assay (ability to scavenge nitrogen radicals); set-up: DPPH assay % inhibition: concentration or dose not given beside the values
Procedure: The samples were mixed with DPPH (23.6 μg/ml, in ethanol), and incubated in dark at 37° C. for 30 minutes. The DPPH absorbance reduced by each sample was measured at 517 nm. Vitamin C (Sigma-Aldrich, St. Louis, Mo.) was used as a control, and the DPPH inhibition value (%) was calculated using the following equation: Scavenging activity (%)=[Absmax(Vit.C)−Abssample]/[Absmax(Vit.C)−Absmin(Vit.C)]×100. Equation 1
(§1) The antioxidant activities of the verbenone derivatives of the present invention were measured by the following two different chemical reactions: (1) a single electron transfer-based assay that is a […] [DPPH] assay that measures a decrease in DPPH acting as a free radical generator and a termination probe; and (2) a hydrogen atom transfer assay that is an oxygen radical absorbance capacity [[…]] assay that measures the competitive reaction kinetics of a peroxyl radical generator (AAPH; 2,2′-azobis-(2-methylpropionamide)-dihydrochloride) and each sample acting as an antioxidant for oxidizable fluorescent probe (fluorescein).

cortical neurons [2] = assay: NMDA-induced excitotoxicity, LDH release; type: cell-based, SD rats; set-up: dose or concentration left out as unconfirmed; settings: cultured cortical neuronal cells; sample 30 min before NMDA; lower than MK-801; FIG. 2
Procedure: (§2) Cortical neurons (5×10^5 cells/ml) were isolated from fetal SD rats (16-17 days). Specifically, brain cortex was cut, and cells were isolated from the tissue by repeated trituration using a Pasteur pipette in buffer (Hanks' Balanced Salt Solution, HBSS). The cell suspension (1.8×10^3 cells/mm^2) was dispensed on a plate pretreated with poly-D-lysine ([…])/laminin ([…]). The cells were placed in 10% FBS-containing NBM medium, and incubated in a […]/5% CO2 atmosphere at 37° C. After 15-16 days of the incubation, the experiment was performed.
After incubation on the plate for 15-18 days, the cortical neurons were exposed to NMDA ([…]) in a solution (Mg^2+-free Earle's balanced salt solution (EBSS); containing 1.8 mM CaCl2 and 10 mM glycine) for 10 minutes. After exposure, the cells were washed with MgSO4-containing EBSS solution, and incubated in 25 mmol/L glucose-containing DMEM medium in a 5% CO2 incubator at 37° C. 30 Minutes before treatment with NMDA, the cells were treated with each sample […].
(§3) In order to measure cell injury or cell death, the amount of LDH released into the medium was measured using a cell viability measurement kit (Sigma-Aldrich, St. Louis, Mo.). Cell viability was expressed as the percentage of LDH relative to the total cellular LDH level measured in sister cultures lysed by freezing-thawing after the experiment.

[3] = Oxygen radical absorbance capacity (ORAC) assay; set-up: ORAC assay TE25 (trolox equivalents): dose or concentration left out as unconfirmed
Procedure: An ORAC assay was performed as disclosed in the literature (Huang, D. et al., J. Agric. Food Chem., 53, 1841-56, 2005).
AAPH (60 mM) and fluorescein (50 nM) were prepared in buffer (75 mM phosphate buffer, pH7.4) without a sample or a sample or a standard (Trolox). Each of the samples and the standard was suspended in a solution of 7% RMCD (randomly methylated beta-cyclodextrin) in 50% acetone. RMCD was used to increase the solubility of oil-soluble samples. Each sample was sufficiently mixed with fluorescein solution (66 nM, 190 μl) by shaking for 5 seconds. After incubation at 37° C. for 10 minutes, AAPH (500 mM, 30 μl) was quickly added to each sample, and a decrease in the fluorescence was measured using a fluorescence microplate reader (Ex=485 nm, Em=530 nm; SpectraMax GeminiEM, Molecular Devices, Sunnyvale, Calif.) at 37° C. at 5-min intervals for 9 hours. To quantify the activity of scavenging peroxyl radicals, AUC (area-under-the-curve) was calculated according to the following equation 2, and net AUC was calculated according to the following equation 3, and the TE (trolox equivalents) of each sample was calculated according to the following equation 4 based on a standard curve of net AUC plotted according to an increase in trolox concentration. AUC=(0.5+f1/f0+f2/f0+f3/f0+ . . . +fn−2/f0+fn−1/f0+fn/f0)×5, Equation 2
wherein f0 is the first fluorescence at 0 min and time I. Net AUC=AUCsample−AUCblank. Equation 3 TE(trolox equivalents) of each sample=[netAUCsample […]]/[net AUCtrolox […]]. Equation 4
as §1

cortical neurons [4] = assay: Oxygen-glucose deprivation (OGD)/reoxygenation neuronal injury, LDH release; type: cell-based; settings: rat cortical neurons, FIG. 1
Procedure: as §2
In order to induce hypoxic-ischemic symptoms in vitro, the incubated cells were placed in an anoxic chamber (partial oxygen pressure <2 mmHg). The cells were incubated glucose-free DMEM while being bubbled with an anaerobic gas mixture (95% N2 and 5% CO2) for 30 minutes to remove residual oxygen, and were incubated at 37° C. for 90 minutes for oxygen deprivation. After 90 minutes, the exposed solution was replaced with 25 mmol/L glucose-containing DMEM medium to stop the OGD reaction, and the cells were restored to normal oxygen conditions. Control cells not exposed to OGD were incubated in glucose (25 mmol/L)-containing DMEM medium provided with an aerobic gas mixture (95% air and 5% CO2). The cells were treated with each sample 30 minutes before, and during the entire period of OGD/re-oxygenation.
as §3

COc1cc(C=CC2=CC(=O)[C@H]3C[C@@H]2C3(C)C)cc(O)c1O [Compound 3f, (1S,5R)-4-(3,4-dihydroxy-5-methoxystyryl)-6,6-dimethylbicyclo[3.1.1]hept-3-en-2-one]
DPPH scavenging activity (in words) ([1]; compared to vitamin C at the same concentration): stronger scavenging activity compared to vitamin C | DPPH assay % inhibition ([1]; relative to vitamin C (Equation 1)): 83.64 ± 6.19% | NMDA-induced neuronal injury (cortical neurons [2]): significantly reduced NMDA-induced neuronal injury | ORAC assay Net AUC [3]: 99.06 ± 37.80 | ORAC assay TE25 (trolox equivalents) ([3]; net AUC sample / net AUC trolox): 2.83 ± 0.22 | neuronal injury induced by OGD (LDH release) (cortical neurons [4]; OGD/reoxygenation, comparable to MK801): significantly reduced neuronal injury | cytotoxicity (cortical neurons [4]): showed no cytotoxicity
